Reference: US20260317304A1, “TEAD INHIBITORS AND METHODS OF USE” (Sporos BioDiscovery, Inc., priority 2022, published 2026)
“Also recorded” adds a separate entry of the source.

How the values were obtained:
TEAD1 = conditions: thermal shift; cited from earlier work
TEAD isoforms 1-4 [1] = conditions: thermal shift data of Tang and Post; cited from earlier work
TEAD4 [2] = conditions: thermal shift; cited from earlier work
TEAD3 [3] = conditions: thermal shift; cited from earlier work
TEAD2 [4] = conditions: thermal shift; cited from earlier work
TEAD3 [5] = molecular target: TEAD3 (Homo sapiens, UniProt Q99594); experiment: TEAD thermal shift assay (TSA); assay type: binding; conditions: Ratio of Protein to Compound 1:3
TEAD3 (Homo sapiens, UniProt Q99594), sequence (Q99594 whole entry): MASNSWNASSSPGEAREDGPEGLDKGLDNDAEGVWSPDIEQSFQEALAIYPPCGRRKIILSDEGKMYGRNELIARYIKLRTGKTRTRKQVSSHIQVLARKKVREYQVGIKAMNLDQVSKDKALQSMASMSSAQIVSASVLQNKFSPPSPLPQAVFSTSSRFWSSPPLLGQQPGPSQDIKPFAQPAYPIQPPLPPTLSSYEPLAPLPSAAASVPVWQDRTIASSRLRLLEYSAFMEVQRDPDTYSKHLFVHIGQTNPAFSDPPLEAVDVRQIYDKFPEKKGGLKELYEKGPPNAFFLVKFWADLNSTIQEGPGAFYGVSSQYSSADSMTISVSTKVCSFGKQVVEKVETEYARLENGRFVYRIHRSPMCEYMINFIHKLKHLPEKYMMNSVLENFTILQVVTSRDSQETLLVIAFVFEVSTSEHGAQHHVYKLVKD
Text: (§1) Thermal shift assay (TSA) is a biophysical method to evaluate stability of proteins with change in temperature. The assay measures thermal denaturation temperature in varying conditions such as different drug concentration. For this example, fluorogenic dye was used that bind to unfolded proteins. SYPRO Orange binds non-specifically to hydrophobic surfaces, and water strongly quenches its fluorescence. When the protein unfolds, the exposed hydrophobic surfaces bind the dye, resulting in an increase in fluorescence by excluding water. Detergent micelles also bind the dye and increase background noise dramatically. Binding of small molecules to proteins leads to a stabilization against to thermal denaturation with the degree of thermal stabilization proportional to the strength of binding.
(§2) The study described in this example investigated the change in melting temperature (ΔTm) of TEAD isoforms 1-4 when treated with TEAD inhibitors.
(§3) Tris-HCL was dissolved in 5 mL of Cell culture grade water and allowed to dissolve completely. The pH was adjusted to 8 using NaOH. Additional assay buffer components were added in the order listed above. The buffer was mixed slowly.
(§4) Assay buffer was prepared according to the procedures outlined above and dispensed into test wells. Spyro orange was added to a concentration of 5× in the assay buffer, followed by test compound stock solution which was added to a concentration of 10 μM or 30 μM in the assay buffer.
(§5) The melt cycle was performed in Bio-RAD PCR instrument from 20-95° C. with ramp rate of 1° C./min.

TEAD2 [6] = molecular target: TEAD2 (Homo sapiens, UniProt Q15562); experiment: TEAD thermal shift assay (TSA); assay type: binding; conditions: Ratio of Protein to Compound 1:3
TEAD2 (Homo sapiens, UniProt Q15562), sequence (Q15562 whole entry): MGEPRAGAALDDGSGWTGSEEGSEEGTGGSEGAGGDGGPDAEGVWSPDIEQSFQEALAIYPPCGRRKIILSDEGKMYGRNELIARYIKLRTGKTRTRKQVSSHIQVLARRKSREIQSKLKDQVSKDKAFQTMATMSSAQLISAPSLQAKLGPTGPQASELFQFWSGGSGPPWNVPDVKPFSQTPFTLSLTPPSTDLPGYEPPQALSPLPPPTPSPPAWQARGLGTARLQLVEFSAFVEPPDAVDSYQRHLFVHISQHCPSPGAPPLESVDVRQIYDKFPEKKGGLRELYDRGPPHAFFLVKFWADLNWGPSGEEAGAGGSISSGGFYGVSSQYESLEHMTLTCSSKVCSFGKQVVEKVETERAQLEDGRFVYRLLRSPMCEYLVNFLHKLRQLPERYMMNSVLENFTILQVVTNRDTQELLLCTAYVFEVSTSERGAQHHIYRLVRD
Text: as §1, §2, §3, §4, §5

TEAD4 [7] = molecular target: TEAD4 (Homo sapiens, UniProt Q15561); experiment: TEAD thermal shift assay (TSA); assay type: binding; conditions: Ratio of Protein to Compound 1:3
TEAD4 (Homo sapiens, UniProt Q15561), sequence (Q15561 whole entry): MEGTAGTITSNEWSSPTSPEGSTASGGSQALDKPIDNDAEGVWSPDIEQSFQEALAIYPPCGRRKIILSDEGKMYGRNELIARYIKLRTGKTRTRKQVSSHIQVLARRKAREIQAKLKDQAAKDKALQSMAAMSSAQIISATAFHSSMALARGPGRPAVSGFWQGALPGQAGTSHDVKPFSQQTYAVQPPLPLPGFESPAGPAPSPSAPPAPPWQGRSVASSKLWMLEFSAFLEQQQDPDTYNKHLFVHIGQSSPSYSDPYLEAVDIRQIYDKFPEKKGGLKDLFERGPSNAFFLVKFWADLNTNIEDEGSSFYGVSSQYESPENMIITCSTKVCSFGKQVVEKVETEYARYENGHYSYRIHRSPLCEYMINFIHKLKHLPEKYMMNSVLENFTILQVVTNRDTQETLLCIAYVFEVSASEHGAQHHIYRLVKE
Text: as §1, §2, §3, §4, §5

TEAD = conditions: control compounds; cited from earlier work
MSTO-211H xenograft = experiment: Mouse xenograft MSTO-211H tumors compared to prior art TEAD inhibitor; assay type: in vivo, BALB/c nude mice; conditions: 7 days of treatment, PO BID, 3 mg/kg Compound 1-1
Procedure: This study evaluated the in vivo anti-tumor efficacy of test compounds in BALB/c nude mice for treatment of MSTO-211H xenograft of lung cancer.
The MSTO-211H tumor cells were maintained in vitro in RPMI 1640 medium supplemented with 10% Fetal bovine serum and 1% Antibiotic-Antimycotic at 37° C. in an atmosphere of 5% CO2 in air. The tumor cells were routinely subcultured twice weekly by trypsin-EDTA. The cells growing in an exponential growth phase were harvested and counted for tumor inoculation.
Each mouse was inoculated subcutaneously at the right flank with MSTO-211H tumor cells (10×10^6+50% matrigel/0.2 mL) for tumor development. Test subjects received vehicle (e.g., 0.5% CMC-Na+1% Tween80) beginning on day 7 after cell inoculation. […]
The major endpoint was to determine if the tumor growth could be delayed. Tumor size was measured twice a week in two dimensions using a caliper, and the volume was expressed in mm^3 using the formula: V=0.5 a×b^2 where a and b are the long and short diameters of the tumor, respectively. […]
Summary statistics, including mean and the standard error of the mean (SEM), were calculated for the tumor volume of each group at each time point. […]
One-tailed T test was performed to compare tumor volumes between two groups. All data were analyzed using GraphPad Prism 6.0. p<0.05 was considered to be statistically significant.

TEAD isoforms 1-4 [8] = experiment: TEAD thermal shift assay (TSA), outcome in words; assay type: binding, human
Text: as §1, §2, §3, §4, §5

SDM103T2 cells = experiment: SDM103T2 proliferation and cell viability assay (CTG); assay type: cell-based; conditions: 144 hours
Procedure: SDM103T2 cells were trypsinised, counted and plated at 800 cells/well in 200 μl of growth media in 96 well flat bottom tissue culture treated plates. The plated cells were incubated overnight at 37° C., 5% CO2 before being treated with compounds in triplicate for each assay point. 50 μl of the serially diluted compound was added to each well giving a final DMSO concentration of 0.5% per well and a total volume of 250 μl per well. The treated cells were incubated for 144 hours (6 days) at 37° C., 5% CO2. Following compound treatment the remaining viable cells were detected using the Promega CellTiter-Glo 2.0 assay as follows: 150 μl of media was removed from each of the wells to be assayed and 100 μl of room temperature CellTiter-Glo 2.0 reagent was added. The plate was placed on an orbital shaker at 500 rpm at room temperature for 2 minutes, and then incubated without shaking for a further 10 minutes at room temperature. 150 μl of cell lysate was removed from each well and dispensed into a single well of a white opaque 96 well plate. Luminescence at 545 nm was read using a BMG CLARIOstar plate reader. The luminescent signal was directly proportional to number of viable cells, the percent of viable cells relative to the DMSO control was then calculated for each assay point. Percent viability relative to DMSO control was plotted against compound concentration and a curve fitted with non-linear regression in GraphPad Prism software. EC50 and absolute IC50 values were calculated using GraphPad Prism software as follows: For EC50 values a non-constrained four-parameter logistic curve fit was used (Sigmoidal, 4PL, X is concentration). For Absolute IC50 values the baseline was constrained to Y=0 and top at 100 (Absolute IC50, X is concentration). Area Under the Curve (AUC): Prism computes area-under-the-curve by the trapezoidal method. The analysis sees a fitted curve as simply a series of connected XY points. Prism simply computes the area under the “curve” defined by connecting the points by straight lines. The units of the AUC are the units of the Y axis times units of the X axis.
For EC50 data, the symbol “A” indicates a value of less than 0.2 μM; the symbol “B” indicates a value in the range of from 0.2 μM up to 1 μM; and the symbol “C” indicates a value of greater than 1 μM.

[9] = as reported by Tang et al.; cited from earlier work

Row | TEAD3 ΔTm (TEAD3 [5]) | TEAD2 ΔTm (TEAD2 [6]) | TEAD4 ΔTm (TEAD4 [7]) | thermal shift / TEAD binding (in words) (TEAD isoforms 1-4 [8]) | SMILES | TEAD1 ΔTm (TEAD1) | TEAD isoform interaction / binding (in words) (TEAD isoforms 1-4 [1]) | selectivity over TEAD2 and 3 (in words) (TEAD isoforms 1-4 [1]) | TEAD4 ΔTm (TEAD4 [2]) | TEAD3 ΔTm (TEAD3 [3]) | TEAD2 ΔTm (TEAD2 [4]) | known TEAD inhibition (in words) (TEAD) | change in tumor volume (in words) (MSTO-211H xenograft) | EC50 (SDM103T2 cells) | half-life (in words) [9]
1 | – | – | – | – | C[C@H](CO)NC(=O)c1ccc2c(Oc3ccc(C(F)(F)F)cc3)cccc2c1 [VT3989] | 11.6 °C | primarily interacts with TEAD1-3; also recorded: lower levels of binding to TEAD4 | minimal selectivity over TEAD2 and 3 | 4.6 °C | 8.5 °C | 8.8 °C | – | – | – | –
2 | 0 °C | 1 °C | 1 °C | pronounced thermal shift only for TEAD1 | CNS(=O)(=O)c1ccc(Nc2ccc(C(F)(F)F)cc2)c(-c2cn(C)cn2)c1 [Compound 1-1] | – | – | – | – | – | – | known strong TEAD1 and weak TEAD2 inhibitor | Tumor growth was observed | < 200 nM | long half-life
